{"source": "patent US20180028477A1", "about": "“TREATMENT OF CARDIAC REMODELING AND OTHER HEART CONDITIONS” (C & C BIOPHARMA, LLC, priority 2013, published 2018)", "key": {"[1]": {"tested_on": "cardiac function after TAC in mice", "assay": "Echocardiography of cardiac function 21 days post TAC (Example 8)", "format": "in vivo", "protocol": "Masson's Trichrome was used to visualize cardiac four-chamber anatomy. Paraffin embedded sections were used for staining (FIG. 5B). Representative wheat germ agglutinin (WGA)-stained sections of myocardium from the mice were prepared. For echocardiography (FIG. 5C), mice were placed under anesthesia with 40 mg/kg ketamine and 5 mg/kg xylocaine and secured in a supine position. Mice were evaluated using […] transducer on a Visual Sonics 770 High Resolution Imaging System. B-mode in the short and long axis view of the ventricle was used to evaluate wall motion defects of ventricle and M-mode in long axis view used for the interventricular septal thickness, posterior wall thickness and the left ventricular dimensions in systole and diastole.\nEchocardiographic studies were performed on the mice to examine systolic function under the experimental conditions described in Example 4. […] As expected, TAC induced a 37% fall in ejection fraction at 21 days (sham, 82.4±1.8% vs. TAC, 51.7±5.1%) (FIG. 8A). […] The mice maintained a near-normal ejection fraction of 75.4% at the highest dose of 8MI (FIG. 8A). […] LV end diastolic diameter (LViDd) (FIG. 8D), LV end-systolic diameter (LViDs) (FIG. 8E), LV systolic volume (LV Vs) (FIG. 8F), and LV diastolic volume (LV Vd) (FIG. 8G) were increased by TAC and diminished in the presence of 8MI. […] Heart rate was unaffected in all mice (FIG. 8H)."}, "[2]": {"assay": "Metabolic stability in human liver microsomes fortified with NADPH (Example 11)", "format": "in vitro ADME", "design": "CLint scaled: dose or concentration left out as unconfirmed", "excerpt": "Drug clearance is a measure of the ability of the body or an organ to eliminate a drug from the blood circulation. Systemic clearance is a measure of the ability of the entire body to eliminate the drug. Organ clearance is a measure of the ability of a particular organ (hepatic or renal) to eliminate the drug. For hepatic clearance, the liver is the major organ for drug metabolism and the key organ for drug clearance. Human liver microsomes (HLM) fortified with NADPH is a standard way to measure in vitro metabolism and predict in vivo clearance. CLint (intrinsic clearance) is the link between in vitro and in vivo studies, which can be estimated based on the mono-exponential decay model: Ct=C X e^−kt.\nHuman liver microsomes fortified with NADPH is a standard approach to evaluate metabolic stability mediated by CYP (cytochrome P450) enzymes in vitro. The reaction mixture (0.4 mL) contained 0.5 mg/mL human liver microsomes, 100 mM phosphate buffer (pH 7.4) and […] of test compounds. The mixture was first warmed up for 5 min in a 37° C. shaking water bath and then NADPH at a final concentration of 1 mM was added to initiate the reaction. Aliquots […] were taken at specified time points and mixed with ice-cold methanol (containing internal standard) to stop the reaction. The mixture was vortexed briefly and centrifuged for protein precipitation. An aliquot of […] supernatant was subject to LC-MS/MS analysis. The percentage of compound disappearance was used to calculate the rate of metabolism."}, "[3]": {"tested_on": "cardiac structural and hypertrophy-associated genes (Col1, Col3, ANP, BNP, SERCA2, alpha- and beta-MHC)", "assay": "Quantitative realtime PCR of cardiac structural and hypertrophy-associated genes in left ventricular tissue after TAC (Example 7)", "format": "in vivo, mice", "details": "mRNA, 21 days after TAC", "protocol": "In parallel samples from the experiment described in Example 4, the expression of a group of cardiac structural and hypertrophy-associated genes were quantified. Total RNA was extracted from left ventricular tissue using TRIzol Reagent (Invitrogen, Carlsbad, Calif.). cDNA was amplified using TaqMan Universal PCR master mix reagent (Applied Biosystems, Foster City, Calif.) under the following conditions: 2 min at 50° C., 10 min at 95° C., 40 cycles: 15 s at 95° C. and 1 min at 60° C. in an ABI 7900HT thermocycler. mRNA expression levels were normalized to those of the internal reference 18S rRNA. All samples were run in duplicates. The following primer sets were used: ANP, BNP, SERCA, MHC, and 18S. Data was analyzed using software RQ manager 1.2 from Applied Biosystems."}, "[4]": {"tested_on": "pressure overload produced by transverse aortic coarctation (TAC) in C57/B16 mice", "format": "in vivo", "protocol": "[…]. Mice were treated with daily injections of MEF2 inhibitor 8MI at the indicated concentrations for two weeks beginning immediately after transverse aortic banding. N=at least 3 per condition. Mice were subjected to either a sham operation (dark gray bars) or TAC (light gray bars). […] Ejection fraction, a measure of contractile function, was determined by echocardiography on a Vevo 770 ultrasound system prior to sacrifice at two weeks.\n[…]. TAC has been used extensively to model the clinical hypertrophic stimuli of hypertension, aortic valve disease, and other types of pressure overload. In vivo pressure overload was created in wild type C57/B16 by creation of a surgical restriction in the transverse aorta between the origins of the right and left carotid arteries as previously described in Wei et. al. 2008. Control littermates were subjected to a sham operation. […] Trans-aortic gradients were determined by simultaneous measurements from the right and left carotid arteries using Statham pressure transducers (model P23XL, Viggo-Spectramed, Oxnard, Calif.) zeroed at the level of the right atrium. Pressures were continuously recorded as described in Wei et. al. 2008. […]\nC57/B16 mice were treated with 8MI for two weeks and evaluated for cardiac function by echocardiography and for cardiac mass using a standard index of heart weight to tibia length (HW/TL) after sacrifice. […]"}, "[5]": {"assay": "Tolerability in mice, daily dosing for four weeks", "format": "in vivo", "details": "100 mg/Kg daily for four weeks"}, "[6]": {"details": "21 days post TAC, depressed by TAC"}, "[7]": {"details": "21 days post TAC, increased by TAC"}}, "note": "Entries after “also recorded” stand apart in the source; their conditions may differ."}
{"smiles": "Nc1ccccc1NC(=O)CCCCCC(=O)Nc1cccc(Br)c1", "note": "[8MI]", "values": [{"measurement": "systolic function / cardiac function under sustained pressure overload", "setting": "[1]; 21 days post TAC, 5, 20 and 40 mg/kg, dose-dependent", "result": "preserved systolic function; also recorded: preservation of cardiac function"}, {"measurement": "ejection fraction", "setting": "[1]; 21 days post TAC, highest dose of 8MI (sham 82.4±1.8%, TAC 51.7±5.1%)", "result": 75.4, "unit": "%"}, {"measurement": "fractional shortening (FS)", "setting": "[1]; [6]", "result": "similarly restored"}, {"measurement": "stroke volume", "setting": "[1]; [6]", "result": "similarly restored"}, {"measurement": "LV end diastolic diameter (LViDd)", "setting": "[1]; [7]", "result": "diminished"}, {"measurement": "LV end-systolic diameter (LViDs)", "setting": "[1]; [7]", "result": "diminished"}, {"measurement": "LV systolic volume (LV Vs)", "setting": "[1]; [7]", "result": "diminished"}, {"measurement": "heart rate", "setting": "[1]; all mice, 21 days", "result": "unaffected"}, {"measurement": "cardiac function in sham-operated mice", "setting": "[1]; sham-operated mice treated with 8MI", "result": "normal cardiac function"}, {"measurement": "K (rate constant)", "setting": "[2]; 0.5 mg/mL human liver microsomes, 1 mM NADPH, pH 7.4, 37° C.", "result": 0.0046, "unit": "min⁻¹"}, {"measurement": "Clhp (hepatic clearance)", "setting": "[2]; human liver microsomes", "result": 3.85, "unit": "mL/min/kg"}, {"measurement": "CLint scaled", "setting": "[2]; pH 7.4, human liver microsomes, from mono-exponential decay model, read-out: Clint (intrinsic clearance)", "result": 4.73, "unit": "mL/min/kg"}, {"measurement": "stress-induced expression of B-type natriuretic peptide (BNP)", "setting": "[3]", "result": "markedly attenuated"}, {"measurement": "stress-induced expression of Collagen Type 1 (Col1)", "setting": "[3]", "result": "markedly attenuated"}, {"measurement": "stress-induced expression of Collagen Type 3 (Col3)", "setting": "[3]", "result": "markedly attenuated"}, {"measurement": "stress-induced expression of SERCA2", "setting": "[3]", "result": "markedly attenuated"}, {"measurement": "stress-induced expression of alpha-myosin heavy chain", "setting": "[3]", "result": "markedly attenuated"}, {"measurement": "stress-induced expression of atrial natriuretic peptide (ANP)", "setting": "[3]", "result": "markedly attenuated"}, {"measurement": "stress-induced expression of beta-myosin heavy chain", "setting": "[3]", "result": "markedly attenuated"}, {"measurement": "mortality", "setting": "[4]; mouse, in vivo", "result": "no mortality"}, {"measurement": "TAC-induced reduction of Left Ventricular Ejection Fraction (LVEF)", "setting": "[4]; two weeks after TAC, 5, 20 and 40 μg/g 8MI daily", "result": "largely prevented this impairment of function"}, {"measurement": "signs of kidney or liver damage or other adverse effects", "setting": "[5]", "result": "no sign of kidney or liver damage or other adverse effects; also recorded: without any signs of kidney or liver disease or other adverse effects"}]}
